Reference: PubChem BioAssay (NCI)
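Five concentrations, 48 hours, 96-well plates. GI50 = concentration required for 50% inhibition of growth. At the TGI there is no net growth.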

Tests used:
Assay in all cases: NCI anticancer screen, dose series, 48 h
K-562 leukemia = tested on: K-562 leukemia
SW-620 colon = tested on: SW-620 colon
MALME-3M melanoma = tested on: MALME-3M melanoma
PC-3 prostate = tested on: PC-3 prostate
SR leukemia = tested on: SR leukemia
DU-145 prostate = tested on: DU-145 prostate
SF-268 CNS = tested on: SF-268 CNS
HCT-116 colon = tested on: HCT-116 colon
NCI-H23 lung = tested on: NCI-H23 lung
SK-MEL-2 melanoma = tested on: SK-MEL-2 melanoma
UACC-257 melanoma = tested on: UACC-257 melanoma
A549 NSCLC = tested on: A549 NSCLC
SF-295 CNS = tested on: SF-295 CNS
HOP-92 NSCLC = tested on: HOP-92 NSCLC
CAKI-1 renal = tested on: CAKI-1 renal
MDA-MB-435 = tested on: MDA-MB-435
TK-10 renal = tested on: TK-10 renal
HCT-15 colon = tested on: HCT-15 colon
HCC-2998 colon = tested on: HCC-2998 colon
HOP-62 NSCLC = tested on: HOP-62 NSCLC
SK-MEL-28 melanoma = tested on: SK-MEL-28 melanoma
SK-OV-3 ovarian = tested on: SK-OV-3 ovarian
MDA-MB-231 breast = tested on: MDA-MB-231 breast
CCRF-CEM leukemia = tested on: CCRF-CEM leukemia
ACHN renal = tested on: ACHN renal
RXF 393 renal = tested on: RXF 393 renal
HT29 colon = tested on: HT29 colon
UO-31 renal = tested on: UO-31 renal
786-0 renal = tested on: 786-0 renal
NCI-H226 lung = tested on: NCI-H226 lung
IGROV1 ovarian = tested on: IGROV1 ovarian
EKVX NSCLC = tested on: EKVX NSCLC
HL-60(TB) leukemia = tested on: HL-60(TB) leukemia
SNB-19 CNS = tested on: SNB-19 CNS
MOLT-4 leukemia = tested on: MOLT-4 leukemia
SF-539 CNS = tested on: SF-539 CNS
NCI-H460 lung = tested on: NCI-H460 lung
MDA-MB-468 breast = tested on: MDA-MB-468 breast
OVCAR-5 ovarian = tested on: OVCAR-5 ovarian
T-47D breast = tested on: T-47D breast
COLO 205 colon = tested on: COLO 205 colon
UACC-62 melanoma = tested on: UACC-62 melanoma
OVCAR-3 ovarian = tested on: OVCAR-3 ovarian
OVCAR-8 ovarian = tested on: OVCAR-8 ovarian
NCI/ADR-RES ovarian = tested on: NCI/ADR-RES ovarian
U251 CNS = tested on: U251 CNS
OVCAR-4 ovarian = tested on: OVCAR-4 ovarian
HS 578T breast = tested on: HS 578T breast
MCF7 breast = tested on: MCF7 breast
RPMI-8226 leukemia = tested on: RPMI-8226 leukemia
LOX IMVI melanoma = tested on: LOX IMVI melanoma
M14 melanoma = tested on: M14 melanoma
SN12C renal = tested on: SN12C renal
A498 renal = tested on: A498 renal
BT-549 breast = tested on: BT-549 breast
NCI-H522 lung = tested on: NCI-H522 lung
SNB-75 CNS = tested on: SNB-75 CNS
KM12 colon = tested on: KM12 colon
SK-MEL-5 melanoma = tested on: SK-MEL-5 melanoma

## COc1ccc(-c2nnc3c(/C=C/c4ccc(Br)cc4)nc4ccccc4n23)cc1
K-562 leukemia
  GI50: 0.431 µM
  TGI: 13.1 µM
SW-620 colon
  GI50: 0.728 µM
  TGI: 2.24 µM
MALME-3M melanoma
  GI50: 1.3 µM
  TGI: 2.72 µM
PC-3 prostate
  GI50: 11.4 µM
  TGI: 23.5 µM
SR leukemia
  GI50: 1.04 µM
  TGI: 3.94 µM
DU-145 prostate
  GI50: 5.24 µM
  TGI: 17.7 µM
SF-268 CNS
  GI50: 14.4 µM
  TGI: 34.7 µM
HCT-116 colon
  GI50: 1.47 µM
  TGI: 3.2 µM
NCI-H23 lung
  GI50: 9.39 µM
  TGI: 21.3 µM
SK-MEL-2 melanoma
  GI50: 10.9 µM
  TGI: 22.8 µM
UACC-257 melanoma
  GI50: 13.1 µM
  TGI: 25.8 µM
A549 NSCLC
  GI50: 12 µM
  TGI: 24.4 µM
SF-295 CNS
  GI50: 16 µM
  TGI: 33.1 µM
HOP-92 NSCLC
  GI50: 1.14 µM
  TGI: 7.29 µM
CAKI-1 renal
  GI50: 11.3 µM
  TGI: 23.3 µM
MDA-MB-435
  GI50: 11.7 µM
  TGI: 23.9 µM
TK-10 renal
  GI50: 13.5 µM
  TGI: 26.3 µM
HCT-15 colon
  GI50: 1.47 µM
  TGI: 3.25 µM
HCC-2998 colon
  GI50: 12.1 µM
  TGI: 24.5 µM
HOP-62 NSCLC
  GI50: 15.5 µM
  TGI: 32 µM
SK-MEL-28 melanoma
  GI50: 8.85 µM
  TGI: 21.1 µM
SK-OV-3 ovarian
  GI50: 21.7 µM
  TGI: 64 µM
MDA-MB-231 breast
  GI50: 4.82 µM
  TGI: 17.5 µM
CCRF-CEM leukemia
  GI50: 1.39 µM
  TGI: 4.9 µM
ACHN renal
  GI50: 2.55 µM
  TGI: 9.06 µM
RXF 393 renal
  GI50: 1.24 µM
  TGI: 2.53 µM
HT29 colon
  GI50: 2.56 µM
  TGI: 9.29 µM
UO-31 renal
  GI50: 2.93 µM
  TGI: 16.4 µM
786-0 renal
  GI50: 1.54 µM
  TGI: 3.81 µM
NCI-H226 lung
  GI50: 1.68 µM
  TGI: 4.5 µM
IGROV1 ovarian
  GI50: 10.7 µM
  TGI: 22.6 µM
EKVX NSCLC
  GI50: 12.1 µM
  TGI: 26.1 µM
HL-60(TB) leukemia
  GI50: 3.43 µM
  TGI: 16.8 µM
SNB-19 CNS
  GI50: 13.7 µM
  TGI: 26.8 µM
MOLT-4 leukemia
  GI50: 2.7 µM
  TGI: 12.1 µM
SF-539 CNS
  GI50: 2.45 µM
  TGI: 6.91 µM
NCI-H460 lung
  GI50: 11.2 µM
  TGI: 23.2 µM
MDA-MB-468 breast
  GI50: 2.08 µM
  TGI: 8.39 µM
OVCAR-5 ovarian
  GI50: 3.97 µM
  TGI: 16 µM
T-47D breast
  GI50: 10.5 µM
  TGI: 25.5 µM
COLO 205 colon
  GI50: 4.19 µM
  TGI: 15.1 µM
UACC-62 melanoma
  GI50: 5.61 µM
  TGI: 19.5 µM
OVCAR-3 ovarian
  GI50: 3.43 µM
  TGI: 14 µM
OVCAR-8 ovarian
  GI50: 10.4 µM
  TGI: 22.1 µM
NCI/ADR-RES ovarian
  GI50: 10.3 µM
  TGI: 25.9 µM
U251 CNS
  GI50: 6.97 µM
  TGI: 19.7 µM
OVCAR-4 ovarian
  GI50: 3.96 µM
  TGI: 16.4 µM
HS 578T breast
  GI50: 16.7 µM
  TGI: 57 µM
MCF7 breast
  GI50: 2.8 µM
  TGI: 14.9 µM
RPMI-8226 leukemia
  GI50: 4.11 µM
  TGI: 18.4 µM
LOX IMVI melanoma
  GI50: 0.883 µM
  TGI: 2.11 µM
M14 melanoma
  GI50: 2.41 µM
  TGI: 10.2 µM
SN12C renal
  GI50: 2.24 µM
  TGI: 8.9 µM
A498 renal
  GI50: 22.8 µM
  TGI: 91.4 µM
BT-549 breast
  GI50: 2.37 µM
  TGI: 15.3 µM
NCI-H522 lung
  GI50: 0.156 µM
  TGI: 0.301 µM
SNB-75 CNS
  GI50: 16 µM
  TGI: 34.1 µM
KM12 colon
  GI50: 12.6 µM
  TGI: 25.1 µM
SK-MEL-5 melanoma
  GI50: 10.8 µM
  TGI: 22.7 µM

## CS(=O)(=O)Nc1ccc(-c2ccc3c(c2)ncn3-c2ccc(NC(=O)Nc3ccc(Cl)c(C(F)(F)F)c3)cc2)cc1
K-562 leukemia
  GI50: 1.95 µM
  TGI: 5.48 µM
SW-620 colon
  GI50: 2.97 µM
  TGI: 12.8 µM
MALME-3M melanoma
  GI50: 2.1 µM
  TGI: 5.58 µM
PC-3 prostate
  GI50: 2.81 µM
  TGI: 10.3 µM
SR leukemia
  GI50: 1.61 µM
  TGI: 3.71 µM
DU-145 prostate
  GI50: 3.84 µM
  TGI: 17.1 µM
SF-268 CNS
  GI50: 3.42 µM
  TGI: 15.4 µM
HCT-116 colon
  GI50: 2.9 µM
  TGI: 9.97 µM
NCI-H23 lung
  GI50: 2.42 µM
  TGI: 7.92 µM
UACC-257 melanoma
  GI50: 2.43 µM
  TGI: 6.85 µM
A549 NSCLC
  GI50: 3 µM
  TGI: 10.8 µM
SF-295 CNS
  GI50: 1.54 µM
  TGI: 3.21 µM
HOP-92 NSCLC
  GI50: 3.41 µM
  TGI: 8.67 µM
CAKI-1 renal
  GI50: 4.73 µM
  TGI: 20.9 µM
MDA-MB-435
  GI50: 2.97 µM
  TGI: 12.4 µM
TK-10 renal
  GI50: 3.83 µM
  TGI: 13.5 µM
HCT-15 colon
  GI50: 2.73 µM
  TGI: 10.1 µM
HCC-2998 colon
  GI50: 4.32 µM
  TGI: 14.7 µM
HOP-62 NSCLC
  GI50: 2.06 µM
  TGI: 4.96 µM
SK-MEL-28 melanoma
  GI50: 2.53 µM
  TGI: 10.3 µM
SK-OV-3 ovarian
  GI50: 2.84 µM
  TGI: 9.55 µM
CCRF-CEM leukemia
  GI50: 2.72 µM
  TGI: 8.84 µM
ACHN renal
  GI50: 2.72 µM
  TGI: 9.66 µM
RXF 393 renal
  GI50: 1.05 µM
  TGI: 3.83 µM
HT29 colon
  GI50: 2.95 µM
  TGI: 10.8 µM
786-0 renal
  GI50: 1.87 µM
  TGI: 4.42 µM
NCI-H226 lung
  GI50: 3.05 µM
  TGI: 11.8 µM
IGROV1 ovarian
  GI50: 3.24 µM
  TGI: 11.5 µM
EKVX NSCLC
  GI50: 2.89 µM
  TGI: 10.2 µM
HL-60(TB) leukemia
  GI50: 1.79 µM
  TGI: 4.02 µM
SNB-19 CNS
  GI50: 3.23 µM
  TGI: 12 µM
MOLT-4 leukemia
  GI50: 1.72 µM
  TGI: 5.05 µM
SF-539 CNS
  GI50: 1.56 µM
  TGI: 6.52 µM
NCI-H460 lung
  GI50: 2.64 µM
  TGI: 9.49 µM
MDA-MB-468 breast
  GI50: 2.43 µM
  TGI: 7.78 µM
OVCAR-5 ovarian
  GI50: 3.03 µM
  TGI: 11.1 µM
T-47D breast
  GI50: 2.69 µM
  TGI: 12.2 µM
COLO 205 colon
  GI50: 2.05 µM
  TGI: 5.15 µM
UACC-62 melanoma
  GI50: 1.91 µM
  TGI: 4.23 µM
OVCAR-3 ovarian
  GI50: 3.17 µM
  TGI: 10.6 µM
OVCAR-8 ovarian
  GI50: 2.38 µM
  TGI: 6.87 µM
NCI/ADR-RES ovarian
  GI50: 5.19 µM
  TGI: 24.8 µM
U251 CNS
  GI50: 2.49 µM
  TGI: 10.8 µM
OVCAR-4 ovarian
  GI50: 4.05 µM
  TGI: 21.1 µM
HS 578T breast
  GI50: 2.14 µM
  TGI: 6.46 µM
MCF7 breast
  GI50: 1.86 µM
  TGI: 5.04 µM
RPMI-8226 leukemia
  GI50: 1.9 µM
  TGI: 5.16 µM
LOX IMVI melanoma
  GI50: 2.63 µM
  TGI: 7.31 µM
M14 melanoma
  GI50: 2.38 µM
  TGI: 9.11 µM
SN12C renal
  GI50: 2.99 µM
  TGI: 11.2 µM
A498 renal
  GI50: 2.42 µM
  TGI: 7.41 µM
BT-549 breast
  GI50: 2.99 µM
  TGI: 7.17 µM
NCI-H522 lung
  GI50: 2.33 µM
  TGI: 8.12 µM
KM12 colon
  GI50: 0.38 µM
  TGI: 9.59 µM
SK-MEL-5 melanoma
  GI50: 1.85 µM
  TGI: 3.87 µM
